How the values were obtained:
MmpL3ΔC D139A [1] = target: T1, MmpL3ΔC D139A (Mycobacterium tuberculosis, UniProt P9WJV5, D139A); assay type: biochemical
[2] = tested on: MsmgΔmmpL3/pMVGH1-mmpL3tb (D58A); assay type: cell-based; settings: disc with 5 µg, 7H11-ADC agar, 4 days at 37°C
MmpL3ΔC D58A [3] = target: T2, MmpL3ΔC D58A (Mycobacterium tuberculosis, UniProt P9WJV5, D58A); assay type: biochemical
MmpL3ΔC [4] = target: T3, MmpL3ΔC (Mycobacterium tuberculosis, UniProt P9WJV5); assay type: biochemical
MmpL3ΔC S66A [5] = target: T4, MmpL3ΔC S66A (Mycobacterium tuberculosis, UniProt P9WJV5, S66A); assay type: biochemical
MmpL3ΔC [6] = target: T3, MmpL3ΔC; assay type: biochemical; remark: listed apart in the source
MmpL3ΔC H68A = MmpL3ΔC H68A (Mycobacterium tuberculosis, UniProt P9WJV5, H68A); assay type: biochemical
MmpL3ΔC D139A [7] = target: T1, MmpL3ΔC D139A; assay type: biochemical; remark: listed apart in the source
MmpL3ΔC [8] = target: T3, MmpL3ΔC; assay type: biochemical; remark: listed apart in the source
MmpL3ΔC D58A [9] = target: T2, MmpL3ΔC D58A; assay type: biochemical; remark: listed apart in the source
MmpL3ΔC S66A [10] = target: T4, MmpL3ΔC S66A; assay type: biochemical; remark: listed apart in the source

Row | SMILES | Rate of fluorescence change (lipid transport activity) (MmpL3ΔC D139A [1]) [RU/s/µM protein] | Susceptibility to growth inhibition (zone of inhibition) compared with cells producing WT Mtb MmpL3 [2] | Rate of fluorescence change (lipid transport activity) (MmpL3ΔC D58A [3]) [RU/s/µM protein] | Effect on asymmetry of NBD-PE lipid distribution in proteoliposomes (flippase activity) (MmpL3ΔC [4]) | Effect on remaining lipid transfer activity (in words) (MmpL3ΔC S66A [5]) | Rate of fluorescence change (lipid transport activity) (MmpL3ΔC S66A [5]) [RU/s/µM protein] | Rate of fluorescence change (lipid transport activity) (MmpL3ΔC [6]) [RU/s/µM protein] | Rate of fluorescence change (lipid transport activity) (MmpL3ΔC H68A) [RU/s/µM protein] | Effect on H+ transfer activity (in words) (MmpL3ΔC D139A [7]) | Effect on H+ transfer activity (in words) (MmpL3ΔC [8]) | Effect on H+ transfer activity (in words) (MmpL3ΔC D58A [9]) | Stimulation of the variant by ligand (in words) (MmpL3ΔC S66A [10])
1 | CC(C)=CCC/C(C)=C/CNCCNC1C2CC3CC(C2)CC1C3 (centres unmarked) [SQ109] | 2.52 | less susceptible | 10.7 | unaffected | inhibited | -0.15 | 2.04 | -0.12 |  |  |  | 
2 | CCCCCCCCCCCCCCCC(=O)OC[C@H]1O[C@H](O[C@H]2O[C@H](CO)[C@@H](O)[C@H](O)[C@H]2O)[C@H](O)[C@@H](O)[C@@H]1O [Tre-C16] | 13.43 |  | 11.53 | unaffected | inhibited | -0.02 | 1.32 | -0.62 | stimulated by Tre-C16 even more strongly than the parent protein | strongly stimulated | stimulated | no significant stimulation
3 | OC[C@H]1O[C@H](O[C@H]2O[C@H](CO)[C@@H](O)[C@H](O)[C@H]2O)[C@H](O)[C@@H](O)[C@@H]1O [trehalose] | 18.84 |  | 7.22 | unaffected | inhibited | 1.20 | 2.96 | 0.37 |  | weakly | weakly | no significant stimulation

Source: publication PMC11481577, “Allosteric coupling of substrate binding and proton translocation in MmpL3 transporter from Mycobacterium tuberculosis” (mBio, 2024)
